From patent US20230107277A1, “SUBSTITUTED PYRIDAZINE COMPOUND” (Astellas Pharma Inc., priority 2020, published 2023)

What was measured:
[1] = system: IL-1β Production of THP-1; test: Test on IL-1β production of THP-1 (LPS and ATP stimulation, ELISA); assay type: cell-based; settings: Homo sapiens; PMA-differentiated THP-1 cells, LPS 50 ng/mL and ATP 5 mM, 2 hours
Experimental: 50 ng/mL of PMA (phorbol myristate acetate, SIGMA, P1585) was added to THP-1 cells, and the cells were cultured at 37° C. for 2 days. […] LPS (Lipopolysaccharide, SIMGA, L2880) and ATP (Adenosine triphosphate, SIGMA, A2383) were added to final concentrations of 50 ng/mL and 5 mM, respectively, and the cells were cultured at 37° C. for 2 hours. The supernatant was collected, and the concentration of IL-1β was measured by an ELISA method (DuoSet ELISA human IL-1β, R&D Systems, DY201). […] The IC50 value was calculated by sigmoid […] model non-linear regression analysis.

[2] = system: IL-1β p17 in the cerebral spinal fluid; test: Test on IL-1β production in rat central nerve (LPS/BzATP intracisternal, CSF Western blot); settings: oral
Experimental: After 2 hours, the test compound was orally administered. After 1 hour, 50 μg/5 μL of BzATP (2′(3′)-O-(4-Benzoylbenzoyl)adenosine 5′-triphosphate triethylammonium salt, SIGMA, B6396) was intracisternally administered, and after 30 minutes, a cerebral spinal fluid was collected. The amount of IL-1β p17 in the cerebral spinal fluid was determined by a Western blotting method using an anti-IL-1β antibody (Millipore, AB1832P), and the inhibition ratio to the solvent administration group was calculated.

Compound	IC50 [1] [µM]	further results
Cc1c(NCCCO)nnc(-c2ccc(C(F)(F)F)cc2O)c1C [Example 70, 2-{6-[(3-hydroxypropyl)amino]-4,5-dimethylpyridazine-3-yl}-5-(trifluoromethyl)phenol]	0.036	–
CC(=O)NCCCCNc1nnc(-c2ccc(C(F)(F)F)cc2O)c(C)c1C [Example 74]	0.035	–
Cc1c(NC[C@H](C)CO)nnc(-c2ccc(C(F)(F)F)cc2O)c1C [Example 75]	0.018	–
Cc1c(NCC(C)CO)nnc(-c2ccc(Cl)cc2O)c1C (stereo not drawn) [Example 77]	0.089	–
C[C@@H](O)CNc1cc(C2CC2)c(-c2ccc(Cl)cc2O)nn1 [Example 78]	0.043	–

The next lines start with results.

IC50 [1] [µM]	Compound	further results
0.21	Cc1c(NC[C@@H](C)O)nnc(-c2ccc(C(F)(F)F)cc2C(F)(F)F)c1C [Example 4, (2R)-1-({6-[2,4-bis(trifluoromethyl)phenyl]-4,5-dimethylpyridazin-3-yl}amino)propan-2-ol]	IL-1β p17 inhibition ratio to the solvent administration group ([2]; Dose 3 mg/kg): 68%; IL-1β p17 inhibition ratio to the solvent administration group ([2]; Dose 10 mg/kg): 93%; IL-1β p17 inhibition ratio to the solvent administration group ([2]; Dose 30 mg/kg): 100%
0.014	Cc1c(NC[C@@H](C)O)nnc(-c2ccc(C(F)(F)F)cc2O)c1C [Example 9, 2-(6-{[(R2R)-2-hydroxypropyl]amino}-4,5-dimethylpyridazin-3-yl)-5-(trifluoromethyl)phenol]	IL-1β p17 inhibition ratio to the solvent administration group ([2]; Dose 0.3 mg/kg): 37%; IL-1β p17 inhibition ratio to the solvent administration group ([2]; Dose 1 mg/kg): 70%; IL-1β p17 inhibition ratio to the solvent administration group ([2]; Dose 3 mg/kg): 89%
0.038	Cc1c(NCC(C)CO)nnc(-c2ccc(C(F)(F)F)cc2O)c1C (stereo not drawn) [Example 71]	–
0.043	Cc1c(NC[C@H](C)O)nnc(-c2ccc(C(F)(F)F)cc2O)c1C [Example 73]	–
